# Entries after “also recorded” stand apart in the source; their conditions may differ.
# What was measured:
# [1] = system: primary rat cortical neurons (axonal AcTub staining); assay type: cell-based; conditions: 1 μM compound; for AcTub staining and axonal processes upon co-addition with okadaic acid: +OA (15 nM, 8 hours); for axonal acetyl-tubulin staining in the absence of OA: relative to vehicle
# QBI293 cells = test: Cytotoxicity in rapidly dividing QBI293 cells; assay type: cell-based; conditions: values in Supporting Information
# HeLa cells = test: Cytotoxicity in rapidly dividing HeLa cells; assay type: cell-based; conditions: values in Supporting Information
# [2] = system: primary mouse cortical neurons (AcTub levels); test: AcTub ELISA in primary mouse cortical neurons treated with okadaic acid; assay type: cell-based; conditions: 10 μM (higher concentration)
# [3] = Brain and plasma pharmacokinetics after i.p. dosing; assay type: in vivo; conditions: CD1 mice
Compound,AcTub staining and axonal processes upon co-addition with okadaic acid [1],axonal acetyl-tubulin staining in the absence of OA [1],"cytotoxicity IC50, side-by-side comparison of enantiomers (QBI293 cells)","cytotoxicity IC50, side-by-side comparison of enantiomers (HeLa cells)",AcTub levels in neuron homogenates in the presence of OA [2],"metabolic stability from plasma PK compared with lead compound 3 ([3]; i.p. dosing, compared to 3)",clearance compared to 3 ([3]; i.p. injection),plasma half-life compared to 3 ([3]; i.p. injection)
"CC(C)[C@@H](C)Nc1c(-c2c(F)cc(F)cc2F)c(Cl)nc2ncnn12 [Compound 3, reference compound]",normalization of AcTub staining and axonal processes,increased axonal acetyl-tubulin staining,–,–,–,–,–,–
"CC(C)[C@@H](Nc1c(-c2c(F)cc(F)cc2F)c(Cl)nc2ncnn12)C(F)(F)F [Compound 46, (R)-5-Chloro-N-(1,1,1-trifluoro-3-methylbutan-2-yl)-6-(2,4,6-trifluorophenyl)-[1,2,4]triazolo[1,5-a]pyrimidin-7-amine]",–,–,did not reveal significant differences in IC50 values,did not reveal significant differences in IC50 values,–,–,–,–
"CC(C)[C@H](Nc1c(-c2c(F)cc(F)cc2F)c(Cl)nc2ncnn12)C(F)(F)F [Compound 47, (S)-5-Chloro-N-(1,1,1-trifluoro-3-methylbutan-2-yl)-6-(2,4,6-trifluorophenyl)-[1,2,4]triazolo[1,5-a]pyrimidin-7-amine]",–,–,did not reveal significant differences in IC50 values,did not reveal significant differences in IC50 values,–,–,–,–
"C[C@@H](Nc1c(-c2c(F)cc(C#N)cc2F)c(Cl)nc2ncnn12)C(C)(C)C [Compound 69, (R)-4-(5-Chloro-7-((3,3-dimethylbutan-2-yl)amino)-[1,2,4]triazolo[1,5-a]pyrimidin-6-yl)-3,5-difluorobenzonitrile]",protects the MT network from okadaic acid-induced collapse; also recorded: normalization of AcTub staining and axonal processes,increased axonal acetyl-tubulin staining,–,–,AcTub levels comparable to those in neurons without OA treatment,greater metabolic stability,reduced clearance,increased plasma half-life

# — paper PMC8569887 (Journal of medicinal chemistry, 2021)
